Data from patent publication US8658697B2 (priority 2004, dated 2014).

What was measured:
Assay in all cases: microbe, parasite or virus in culture
[1] = test system: Tacaribe virus (TRVL 11573); assay type: cell-based; conditions: Mammarenavirus tacaribeense, Vero, read-out: Tacaribe EC50
[2] = test system: Candid-1 vaccine virus; assay type: cell-based, Junin virus (vaccine strain); conditions: Mammarenavirus juninense, Vero, 168 h, read-out: Candid 1 EC50
[3] = test system: VSV pseudotyped virus; assay type: cell-based; conditions: Vesicular stomatitis virus, read-out: EC50 vs. pseudotyped virus (μM) VSV
[4] = test system: Guanarito pseudotyped virus; assay type: cell-based; conditions: Mammarenavirus guanaritoense, read-out: EC50 vs. pseudotyped virus (μM) Guanarito
[5] = test system: Tacaribe pseudotyped virus; assay type: cell-based; conditions: Mammarenavirus tacaribeense, read-out: EC50 vs. pseudotyped virus (μM) Tacaribe
[6] = test system: Tacaribe virus; assay type: cell-based; conditions: Mammarenavirus tacaribeense, Vero, 168 h, read-out: Tacaribe EC50
[7] = test system: Machupo pseudotyped virus; assay type: cell-based; conditions: Mammarenavirus machupoense, read-out: EC50 vs. pseudotyped virus (μM) Machupo
[8] = test system: Pichinde pseudotyped virus; assay type: cell-based; conditions: read-out: EC50 vs. pseudotyped virus (μM) Pichinde

Cc1cccc(NC(=O)NC(C)(C(F)(F)F)C(F)(F)F)c1 [Example 86, 1-(3-Methylphenyl)-3-(2,2,2-trifluoro-1-methyl-1-trifluoromethylethyl)-urea]
EC50 [1]: > 5 µM

CC(NC(=O)Nc1ccc(S(N)(=O)=O)cc1)(C(F)(F)F)C(F)(F)F [Example 87, 4-[3-(1,1-Bis-trifluoromethylethyl)-ureido]benzenesulfonamide]
EC50 [1]: > 5 µM

CC(NC(=O)Nc1c(Br)cccc1Br)(C(F)(F)F)C(F)(F)F [Example 88, 1-(2,6-Dibromophenyl)-3-(2,2,2-trifluoro-1-methyl-1-trifluoromethylethyl)-urea]
EC50 [1]: > 5 µM

Cc1ccccc1NC(=O)NC(C)(C(F)(F)F)C(F)(F)F [Example 89, 1-(2-Methylphenyl)-3-(2,2,2-trifluoro-1-methyl-1-trifluoromethylethyl)-urea]
EC50 [1]: > 5 µM

Cc1ccc(NC(=O)NC(C)(C(F)(F)F)C(F)(F)F)cc1 [Example 90, 1-(4-Methylphenyl)-3-(2,2,2-trifluoro-1-methyl-1-trifluoromethylethyl)-urea]
EC50 [1]: > 5 µM

CC(NC(=O)N1CCCC1)(C(F)(F)F)C(F)(F)F [Example 91, 1-Pyrrolidinyl-1-(2,2,2-trifluoro-1-methyl-1-trifluoromethylethyl)-carboxamide]
EC50 [1]: > 5 µM

CC(NC(=O)Nc1ccc(F)cc1)(C(F)(F)F)C(F)(F)F [Example 92, 1-(4-Fluorophenyl)-3-(2,2,2-trifluoro-1-methyl-1-trifluoromethylethyl)-urea]
EC50 [1]: > 5 µM

CC(NC(=O)Nc1ccc(Br)cc1Br)(C(F)(F)F)C(F)(F)F [Example 93, 1-(2,4-Dibromophenyl)-3-(2,2,2-trifluoro-1-methyl-1-trifluoromethylethyl)-urea]
EC50 [1]: > 5 µM

CC(NC(=O)N1CCCCCC1)(C(F)(F)F)C(F)(F)F [Example 94, Azepane-1-carboxylic acid (2,2,2-trifluoro-1-methyl-1-trifluoromethylethyl)-amide]
EC50 [1]: > 5 µM

CC(NC(=O)Nc1ccc(Br)cc1OC(F)(F)F)(C(F)(F)F)C(F)(F)F [Example 95, 1-(4-Bromo-2-trifluoromethoxyphenyl)-3-(2,2,2-trifluoro-1-methyl-1-trifluoromethylethyl)-urea]
EC50 [1]: > 5 µM

CC(NC(=O)Nc1ccccc1OC(F)(F)F)(C(F)(F)F)C(F)(F)F [Example 96, 1-(2-Trifluoromethoxyphenyl)-3-(2,2,2-trifluoro-1-methyl-1-trifluoromethylethyl)-urea]
EC50 [1]: > 5 µM

COc1ccccc1NC(=O)NC(C)(C(F)(F)F)C(F)(F)F [Example 98, 1-(2-Methoxyphenyl)-3-(2,2,2-trifluoro-1-methyl-1-trifluoromethylethyl)-urea]
EC50 [1]: > 5 µM

CCC(NC(=O)NNC(=O)c1cc(OCC(F)(F)F)ccc1OCC(F)(F)F)(C(F)(F)F)C(F)(F)F [Example 99, 2-[2,5-bis(2,2,2-trifluoroethoxy)benzoyl]-N-[1,1-bis(trifluoromethyl)propyl]hydrazinecarboxamide]
EC50 [2]: > 5 µM | EC50 [3]: > 5 µM | EC50 [4]: 1 to 5 µM | EC50 [5]: < 0.5 µM | EC50 [6]: < 0.5 µM | EC50 [7]: 0.5 to 1 µM | EC50 [8]: 1 to 5 µM

CCC(NC(=O)NNC(=O)c1ccc(C(C)(C)C)cc1)(C(F)(F)F)C(F)(F)F [Example 100, N-[1,1-bis(trifluoromethyl)propyl]-2-(4-tert-butylbenzoyl)hydrazinecarboxamide]
EC50 [2]: 1 to 5 µM | EC50 [3]: > 5 µM | EC50 [4]: < 0.5 µM | EC50 [5]: < 0.5 µM | EC50 [6]: < 0.5 µM | EC50 [7]: < 0.5 µM | EC50 [8]: 1 to 5 µM

CCC(NC(=O)NNC(=O)c1c(C)cc(C)cc1C)(C(F)(F)F)C(F)(F)F [Example 111, N-[1,1-bis(trifluoromethyl)propyl]-2-(mesitylcarbonyl)hydrazinecarboxamide]
EC50 [3]: > 5 µM | EC50 [4]: 0.5 to 1 µM | EC50 [5]: < 0.5 µM | EC50 [6]: 1 to 5 µM | EC50 [7]: < 0.5 µM | EC50 [8]: 1 to 5 µM
